Assay results: ChEMBL document CHEMBL1201862, “PubChem BioAssay data set” (2004)
Counter-ions that a name gives are not always drawn.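 Values below derive from 48-hour exposures of cells grown in 96-well plates, with endpoints linearly interpolated between the two concentrations bracketing the appropriate inhibition level. At the GI50, growth is halved.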 Active and inactive are the calls of the source. Cut-off read from the data, not from the text of the source: active = GI50 up to about 1.1 µM and inactive = higher.

How the values were obtained:
Test in all cases: NCI anticancer screen, dose series, 48 h
[1] = tested on: 786-0
[2] = tested on: A549
[3] = tested on: COLO 205
[4] = tested on: HL-60
[5] = tested on: HT-29
[6] = tested on: KM12
[7] = tested on: MOLT-4
[8] = tested on: NCI-H226
[9] = tested on: NCI-H23
[10] = tested on: OVCAR-4
[11] = tested on: RPMI-8226
[12] = tested on: SK-MEL-28
[13] = tested on: SK-OV-3
[14] = tested on: SN12C
[15] = tested on: SNB-19
[16] = tested on: SR
[17] = tested on: SW-620
[18] = tested on: TK-10
[19] = tested on: HCC 2998

Row | Structure (SMILES) | GI50 [1] | GI50 [2] | GI50 [3] | GI50 [4] | GI50 [5] | GI50 [6] | GI50 [7] | GI50 [8] | GI50 [9] | GI50 [10] | GI50 [11] | GI50 [12] | GI50 [13] | GI50 [14] | GI50 [15] | GI50 [16] | GI50 [17] | GI50 [18] | GI50 [19]
1 | CN(C)Cc1ccc(-c2cc3onc(-c4ccccc4)c3c(=O)n2C)cc1 | 17.3 µM (inactive) | 16.4 µM (inactive) | 20 µM (inactive) | 0.711 µM (active) | 11 µM (inactive) | 19.5 µM (inactive) | 17.8 µM (inactive) | > 100 µM (inactive) | 29.6 µM (inactive) | 84.9 µM (inactive) | 19.4 µM (inactive) | 18.9 µM (inactive) | 48.8 µM (inactive) | 55.6 µM (inactive) | 57.8 µM (inactive) | 11.7 µM (inactive) | 21.3 µM (inactive) | 24.1 µM (inactive) | 
2 | CC1=C(/C=C/Cl)CC(Cl)C(C)(Cl)C1 (configuration not stated) | > 100 µM (inactive) | > 100 µM (inactive) | > 100 µM (inactive) | 20.4 µM (inactive) | 55.8 µM (inactive) | > 100 µM (inactive) | 63.5 µM (inactive) | > 100 µM (inactive) | > 100 µM (inactive) | 83.8 µM (inactive) |  | > 100 µM (inactive) | > 100 µM (inactive) | > 100 µM (inactive) | > 100 µM (inactive) | > 100 µM (inactive) | > 100 µM (inactive) | > 100 µM (inactive) | > 100 µM (inactive)
3 | CCCCCCCCCCCCCCCCOP(=O)([O-])OCC[N+](C)(C)C1CC(C)(C)N(O)C(C)(C)C1 | > 100 µM (inactive) | > 100 µM (inactive) | > 100 µM (inactive) |  | > 100 µM (inactive) | > 100 µM (inactive) |  | > 100 µM (inactive) | > 100 µM (inactive) | > 100 µM (inactive) |  |  | > 100 µM (inactive) |  | > 100 µM (inactive) | > 100 µM (inactive) | > 100 µM (inactive) | > 100 µM (inactive) | > 100 µM (inactive)
4 | CCCCN/N=N/c1cn(C2OC(CO)C(O)C2O)c(=O)[nH]c1=O (configuration not stated) | > 100 µM (inactive) | > 100 µM (inactive) | > 100 µM (inactive) | > 100 µM (inactive) | > 100 µM (inactive) | > 100 µM (inactive) | > 100 µM (inactive) | > 100 µM (inactive) | > 100 µM (inactive) | > 100 µM (inactive) |  | > 100 µM (inactive) | > 100 µM (inactive) | > 100 µM (inactive) | > 100 µM (inactive) | > 100 µM (inactive) | > 100 µM (inactive) | > 100 µM (inactive) | > 100 µM (inactive)
5 | CC1CCOc2ccc(cc2)/C=N\c2ccc(cc2)CCc2ccc(cc2)/N=C\c2ccc(cc2)OCC1 | > 100 µM (inactive) | > 100 µM (inactive) | > 100 µM (inactive) |  | > 100 µM (inactive) | > 100 µM (inactive) | > 100 µM (inactive) | > 100 µM (inactive) | > 100 µM (inactive) | > 100 µM (inactive) | > 100 µM (inactive) | > 100 µM (inactive) |  | > 100 µM (inactive) | > 100 µM (inactive) | > 100 µM (inactive) | > 100 µM (inactive) |  | > 100 µM (inactive)
6 | O=C1Nc2ccccc2/C1=C1\C(=O)Nc2ccccc21 [ISOINDIGO] | 9.42 µM (inactive) | 27.4 µM (inactive) | 21.9 µM (inactive) |  | 4.98 µM (inactive) | 21.6 µM (inactive) | 3.59 µM (inactive) | > 100 µM (inactive) | 20.9 µM (inactive) | 10 µM (inactive) | 17.3 µM (inactive) | 91.2 µM (inactive) | 59.7 µM (inactive) | 19 µM (inactive) | 22.5 µM (inactive) | 2.82 µM (inactive) | 4.57 µM (inactive) | 31.6 µM (inactive) | 23.2 µM (inactive)
7 | O=C(NNC(=O)c1csc(NC(=S)NC2CCCCC2)n1)c1ccccc1 | 12.7 µM (inactive) | 15.1 µM (inactive) | 5.25 µM (inactive) |  | 7.23 µM (inactive) | 8.13 µM (inactive) | 4.2 µM (inactive) | 7.24 µM (inactive) | 16.7 µM (inactive) | 3.34 µM (inactive) | 10 µM (inactive) |  | 12.1 µM (inactive) | 5.97 µM (inactive) |  | 2.26 µM (inactive) | 10.3 µM (inactive) | 22 µM (inactive) | 13.9 µM (inactive)
8 | C/C(=N\c1c2ccccc2nc2ccccc12)N(C)C | 24.2 µM (inactive) | 28.2 µM (inactive) | 12.6 µM (inactive) | 3.28 µM (inactive) | 9.48 µM (inactive) |  | 12.2 µM (inactive) | 11.9 µM (inactive) | 15.2 µM (inactive) | 19 µM (inactive) | 13.6 µM (inactive) | 18.4 µM (inactive) | 22.8 µM (inactive) |  | 34 µM (inactive) | 3.47 µM (inactive) |  | 21.9 µM (inactive) | 
9 | CC1(C)CC2(C)CC1CC2NC(=O)CCN1CCOCC1 (configuration not stated) | > 100 µM (inactive) | > 100 µM (inactive) | > 100 µM (inactive) | > 100 µM (inactive) | > 100 µM (inactive) | > 100 µM (inactive) | > 100 µM (inactive) | > 100 µM (inactive) | > 100 µM (inactive) | > 100 µM (inactive) |  | > 100 µM (inactive) | > 100 µM (inactive) | > 100 µM (inactive) | > 100 µM (inactive) | > 100 µM (inactive) | > 100 µM (inactive) | > 100 µM (inactive) | > 100 µM (inactive)
10 | CSc1nc(NC2CC2)c2c(n1)Sc1nc3ccccc3n1N=C2 | 6.08 µM (inactive) | 18.7 µM (inactive) | 41.9 µM (inactive) |  | 26.3 µM (inactive) | 56.2 µM (inactive) | > 100 µM (inactive) | 16.8 µM (inactive) | 21.4 µM (inactive) | 16.7 µM (inactive) |  | > 100 µM (inactive) | 26.5 µM (inactive) | 8.55 µM (inactive) | 34.4 µM (inactive) | > 100 µM (inactive) | 26.6 µM (inactive) | 25.1 µM (inactive) | 27.5 µM (inactive)
11 | COc1ccccc1Cn1nc(OC)c2cc([N+](=O)[O-])ccc21 | 11.6 µM (inactive) | 63.2 µM (inactive) | > 100 µM (inactive) | > 100 µM (inactive) | > 100 µM (inactive) | > 100 µM (inactive) | > 100 µM (inactive) | 42.1 µM (inactive) | 35.6 µM (inactive) | 13.4 µM (inactive) |  | > 91 µM (inactive) |  | > 69 µM (inactive) | 11.1 µM (inactive) | > 100 µM (inactive) | > 100 µM (inactive) | 12.5 µM (inactive) | > 100 µM (inactive)
12 | NC(CC(=O)Nc1cc(C(F)(F)F)ccc1Cl)=NO | > 100 µM (inactive) | > 100 µM (inactive) | > 100 µM (inactive) | > 100 µM (inactive) | > 100 µM (inactive) | > 100 µM (inactive) | > 100 µM (inactive) | > 100 µM (inactive) | > 100 µM (inactive) | > 100 µM (inactive) | > 100 µM (inactive) | > 100 µM (inactive) | > 100 µM (inactive) | > 100 µM (inactive) | > 100 µM (inactive) | > 100 µM (inactive) | > 100 µM (inactive) | > 100 µM (inactive) | 
13 | CN(C)CCC=C1c2ccccc2C=Cc2ccccc21 [CYCLOBENZAPRINE HYDROCHLORIDE] | 16.1 µM (inactive) | 20 µM (inactive) | 14.4 µM (inactive) |  | 5.25 µM (inactive) | 18.5 µM (inactive) | 16.8 µM (inactive) | 0.0374 µM (active) | 18.7 µM (inactive) | 23.1 µM (inactive) | 18.3 µM (inactive) | 16.1 µM (inactive) | 16.1 µM (inactive) | 16.9 µM (inactive) | 19.8 µM (inactive) | 17.9 µM (inactive) | 17.1 µM (inactive) | 16.2 µM (inactive) | 5.4 µM (inactive)
14 | c1ccc(CN2CCCN3CCN(CCCN(Cc4ccccc4)CC3)CC2)cc1 | 42.2 µM (inactive) | 69.5 µM (inactive) | 25.3 µM (inactive) | 24.7 µM (inactive) | 35.9 µM (inactive) | 31.6 µM (inactive) | 81.3 µM (inactive) | 73.6 µM (inactive) | 34.1 µM (inactive) | 35.6 µM (inactive) | 13 µM (inactive) | 39.4 µM (inactive) | > 100 µM (inactive) | 31.5 µM (inactive) | 35.5 µM (inactive) | 43 µM (inactive) | > 100 µM (inactive) | 55.6 µM (inactive) | 
15 | O=C(NNC(=O)c1ccccc1O)c1cccs1 | > 100 µM (inactive) | 54.1 µM (inactive) | 46.5 µM (inactive) | 50 µM (inactive) | 33.3 µM (inactive) | 39.4 µM (inactive) | 54.7 µM (inactive) | 5.79 µM (inactive) |  | > 100 µM (inactive) | > 100 µM (inactive) | > 100 µM (inactive) | 24.4 µM (inactive) | > 100 µM (inactive) | > 100 µM (inactive) | 71 µM (inactive) | 61.5 µM (inactive) | > 100 µM (inactive) | 
16 | O=c1cc(CSc2c(-c3ccccc3)c(=O)n(-c3ccccc3)c(=S)n2-c2ccccc2)[nH]c(=O)[nH]1 | > 100 µM (inactive) | > 100 µM (inactive) | > 100 µM (inactive) | > 100 µM (inactive) | > 100 µM (inactive) | > 100 µM (inactive) | > 100 µM (inactive) |  |  |  | > 100 µM (inactive) | > 100 µM (inactive) | > 100 µM (inactive) | > 100 µM (inactive) | > 100 µM (inactive) | > 100 µM (inactive) | > 100 µM (inactive) | > 100 µM (inactive) | > 100 µM (inactive)
